The record followed here is US20210077370A1, “Use of compositions comprising dihydroxyacetone for the protection of skin or hair against infrared irradiation” (Merck Patent GmbH, priority 2019, published 2021).

One assay has as its system MMP1. As to the kind of experiment: MMP1 immunostaining on human skin explants after IR-A irradiation. Format: cell-based. As for the experimental part: (§1) The product tested is a solution of 2% DHA in water. This was done to avoid formulation effects of auxiliary ingredients.
(§2) Human skin explants were prepared on an abdominoplasty coming from a person (Fitzpatrick skin phototype II-Ill). The explants were kept in survival in BEM culture medium (BIO-EC's Explants Medium) at 37° C. in a humid, 5%-CO2 atmosphere.
(§3) On day 0 (D0), day 3 (D3) and day 4 (D4; 3 hours before IR irradiation), day 5 (D5) and day 6 (D6), the product was applied topically followed by 10 minutes of drying. […] The culture medium was half renewed (1 ml/well) on day 3 and day 5. Irradiation of the explants were done using an infrared lamp (Dr FISCHER 1000 W, 235V, 2500K, 760-3000 nm), for 5040 s (720 J/cm^2). Water filter and IR760 filter were also used to have the following IR range of 700 nm to 1150 nm. The unirradiated batches were kept in HBSS (Hank's Balanced Saline Solution) in the dark. At the end of the irradiation, all the explants were put back in 2 ml of fresh BEM culture medium.
(§4) The explants temperature was measured before and after IR-A irradiation. To avoid temperature-driven side-effects, the explants temperature was maintained at 37° C. (max. 39° C.) by specially adapted refreshing system.
The immunostaining was performed using an automated slide processing system (Autostainer, Dako) and assessed by microscopical observation.

The next assay deals with tropoelastin. As to the kind of experiment: Tropoelastin immunostaining on human skin explants after IR-A irradiation. Conditions: papillary dermis. It counts as cell-based. As for the experimental part:
as §1, §2, §3, §4
The nuclei were counterstained by propidium iodide.
The immunostaining was assessed by microscopical observation.

In the case of `O=C(CO)CO` [DHA, 1,3-dihydroxy-2-propanone], in the assay on MMP1 (epidermis, IR-A irradiated, day 5, p<0.01), the “MMP-1 decrease versus irradiated blank, epidermis” value stood at 65%. The “MMP1 in the epidermis (% surface)” value in the assay with MMP1 (living epidermis, IR-A irradiated explant + product applied topically, day 5) turned out to be 8.4 % surface. Besides, the “protection of the explants after irradiation to IR-A (tropoelastin)” value in the assay on tropoelastin (day 7) is recorded as “excellent protection”. Also, in the assay with tropoelastin (day 7, statistically not different (p>0.1)), the “Tropoelastin levels after IR-A irradiation and DHA treatment versus blank untreated explant” value is given as “comparable to those of blank untreated explant”.
